Values joined by “and” are separate entries in the source; they are usually repeats but may differ in a detail not shown here. Equal entries are not always repeated. “Also recorded” adds a separate entry of the source. Where two headings read alike, the source gives them in different places.
Tests used:
[1] = system: M.tb H37Rv reference strain; test: BACTEC 460TB assay of mycobacterial growth; assay type: cell-based, Mycobacterium tuberculosis; settings: for Activity against M.tb H37Rv, in words: 100 μM final concentration
[2] = target: T1, deadenylylated MtbGS (Mycobacterium tuberculosis, UniProt P9WN39); test: biochemical; set-up: species or system M. tuberculosis; settings: for inhibition at 10 µM: 10μM final concentration
T1 construct: made in house; host or cells: E. coli YMC11E with pTBSK
T1 sequence (P9WN39 2-478 limits assumed): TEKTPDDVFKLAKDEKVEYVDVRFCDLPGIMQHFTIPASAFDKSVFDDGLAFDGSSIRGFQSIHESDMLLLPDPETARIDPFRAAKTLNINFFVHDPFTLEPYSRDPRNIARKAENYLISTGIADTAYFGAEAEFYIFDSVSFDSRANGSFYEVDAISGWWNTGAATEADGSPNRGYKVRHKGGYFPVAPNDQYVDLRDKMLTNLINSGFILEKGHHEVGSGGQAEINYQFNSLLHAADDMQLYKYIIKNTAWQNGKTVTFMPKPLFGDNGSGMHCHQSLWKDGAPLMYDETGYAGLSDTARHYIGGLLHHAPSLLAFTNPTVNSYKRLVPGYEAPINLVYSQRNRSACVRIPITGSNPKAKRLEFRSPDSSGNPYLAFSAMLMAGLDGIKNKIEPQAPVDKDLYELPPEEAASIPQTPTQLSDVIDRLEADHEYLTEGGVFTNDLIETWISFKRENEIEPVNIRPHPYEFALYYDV

[3] = target: T2, adenylylated MtbGS (Mycobacterium tuberculosis, UniProt P9WN39); test: biochemical; assay type: biochemical, M. tuberculosis; settings: for inhibition at 10 µM: 10μM final concentration; for Selectivity for adenylylated vs deadenylylated MtbGS: from % inhibition at 10μM of both enzyme forms
T2 construct: made in house; host or cells: E. coli YMC11E(DE3) with pTBSK and pTBglnE
T2 sequence (P9WN39 2-478 limits assumed): as above

[4] = system: M.tb (Beijing220) in mouse bone-marrow derived macrophages; test: Intracellular M.tb in mouse bone-marrow derived macrophage assay; assay type: cell-based, Mycobacterium tuberculosis; settings: for Activity against intracellular M.tb (Beijing220), in words / Percentage killing of intracellular M.tb (Beijing220), Fig 7: 100 μM; for Activity against intracellular M.tb (Beijing220), in words: Fig 7; for Percentage killing of intracellular M.tb (Beijing220), Fig 7: MOI 2:1, drug on day 4 post infection, harvest day 2 post drug, first experiment (8 selective compounds)
[5] = system: M.tb H37Rv reference strain (ATCC 25618); set-up: method as in PMID 9145860; settings: approximately 10x higher than the minimal inhibitory concentrations; cited from earlier work
[6] = system: M.tb (Beijing220) clinical isolate; settings: cited from earlier work
[7] = system: M. tuberculosis; settings: both in vitro and in vivo; cited from earlier work
[8] = pre-incubation protocol, average over the 4 screens, read-out: Deadenylated Mtb GS (% inhibition) AVG
[9] = pre-incubation protocol, screen 1, read-out: Deadenylated Mtb GS (% inhibition) Screen 1
[10] = pre-incubation protocol, screen 2, read-out: Deadenylated Mtb GS (% inhibition) Screen 2
[11] = pre-incubation protocol, screen 3, read-out: Deadenylated Mtb GS (% inhibition) Screen 3
[12] = pre-incubation protocol, screen 4, read-out: Deadenylated Mtb GS (% inhibition) Screen 4
[13] = pre-incubation protocol, average over the 4 screens, read-out: Adenylated Mtb GS (% inhibition) AVG
[14] = pre-incubation protocol, screen 1, read-out: Adenylated Mtb GS (% inhibition) Screen 1
[15] = pre-incubation protocol, screen 2, read-out: Adenylated Mtb GS (% inhibition) Screen 2
[16] = pre-incubation protocol, screen 3, read-out: Adenylated Mtb GS (% inhibition) Screen 3
[17] = pre-incubation protocol, screen 4, read-out: Adenylated Mtb GS (% inhibition) Screen 4
[18] = dose-response assay, pre-incubation protocol, single assay values

SMILES	Activity against M.tb H37Rv, in words [1]	inhibition at 10 µM [2, 8]	inhibition at 10 µM [2, 9]	inhibition at 10 µM [2, 10]	inhibition at 10 µM [2, 11]	inhibition at 10 µM [2, 12]	inhibition at 10 µM [3, 13]	inhibition at 10 µM [3, 14]	inhibition at 10 µM [3, 15]	inhibition at 10 µM [3, 16]	inhibition at 10 µM [3, 17]	further results
OCCNc1cc(N2CCCC2)ncn1 [Compound 5024]	no activity	47%	49%	44%	52%	44%	43%	46%	48%	43%	36%	
Cc1nc(N)cc(C[n+]2csc(CCOP(=O)(O)O)c2C)n1 [Compound 5016]	no activity	11%	7%	19%	3%	13%	43%	51%	43%	46%	30%	
Nc1nc(O)c2ccccc2n1 [Compound 12004]	no activity	42%	50%	43%	38%	38%	34%	39%	32%	33%	30%	
O=NN(Cc1ccccc1)c1cc(N2CCCC2)ncn1 [Compound 5045]		48%	44%	45%	54%	48%	0%	0%	0%	0%	0%	Growth inhibition of M.tb H37Rv (percentage of growth index) ([1]; 100 μM, day 6 of incubation, relative to control cultures): 98%; Selectivity for adenylylated vs deadenylylated MtbGS [3]: significant selectivity for the deadenylylated MtbGS; also recorded: deadenylylated selective; also recorded: specific to the de-adenylylated form of GS; Percentage killing of intracellular M.tb (Beijing220), Fig 8 ([4]; 100 μM for 2 days, second experiment at 10, 50 and 100 μM): 73%; Activity against intracellular M.tb (Beijing220), in words [4]: moderate activity; Percentage killing of intracellular M.tb (Beijing220), Fig 7 [4]: 64%
CP(=O)(O)CC[C@H](N)C(=O)O [PhosT, phosphinotricin, reference compound]		100%	100%	98%	100%	100%	98%	100%	95%	97%	100%	IC50 [2, 18]: 830 nM; IC50 ([3]; dose-response assay, pre-incubation protocol, single assay values, read-out: IC50, adenylylated MtbGS): 16 nM
COc1ccc(-c2nc3ccccn3c2Nc2c(C)cccc2C)cc1OC [Compound 10059]		44%	49%	48%	36%	43%	91%	82%	99%	82%	100%	IC50 [2, 18]: 13200 nM and 17100 nM; IC50 ([3]; dose-response assay, enzyme form not given, read-out: IC50 concentration, MtbGS): < 100000 nM; Selectivity for adenylylated vs deadenylylated MtbGS [3]: GS-adenylylated specific; Activity against intracellular M.tb (Beijing220), in words [4]: moderate activity; Percentage killing of intracellular M.tb (Beijing220), Fig 7 [4]: 54%
NNC(=O)c1ccncc1 [isoniazid]												Breakpoint concentration to which the H37Rv strain was sensitive [5]: 0.25 µg/mL; Susceptibility of the Beijing220 clinical isolate [6]: resistant
CS(=N)(=O)CC[C@H](N)C(=O)O (stereo partly drawn) [MSO, L-methionine-S,R-sulphoximine, reference compound]												Deadenylated Mtb GS (% inhibition) AVG [2]: 100%; Deadenylated Mtb GS (% inhibition) Screen 1 [2]: 100%; Deadenylated Mtb GS (% inhibition) Screen 2 [2]: 100%; Deadenylated Mtb GS (% inhibition) Screen 3 [2]: 99%; Deadenylated Mtb GS (% inhibition) Screen 4 [2]: 100%; IC50 [2]: 1600 nM; Growth of M. tuberculosis [7]: inhibits growth; Adenylated Mtb GS (% inhibition) AVG [3]: 99%; Adenylated Mtb GS (% inhibition) Screen 1 [3]: 100%; Adenylated Mtb GS (% inhibition) Screen 2 [3]: 100%; Adenylated Mtb GS (% inhibition) Screen 3 [3]: 96%; Adenylated Mtb GS (% inhibition) Screen 4 [3]: 100%; IC50 ([3]; read-out: IC50, adenylylated MtbGS): 160 nM

From paper PMC5626031, “Differential inhibition of adenylylated and deadenylylated forms of M. tuberculosis glutamine synthetase as a drug discovery platform” (PLoS ONE, 2017)
